Measured values taken from US8168178B2, “Methods and compositions for regulating lymphocyte activity” (Curis, Inc., priority 1999, dated 2012).

How the values were obtained:
[1] = system: thymocytes in wild-type FTOC; experiment: Fetal thymic organ culture (FTOC) of wild-type thymus, flow cytometry of thymocyte subsets; assay type: cell-based, mouse
Procedure: Utilizing a fetal thymic organ culture (FTOC), the effects of Shh on T-cell maturation was determined. Briefly, immature thymocytes (CD4^−/CD8^− [DN]) were isolated from E14 thymus. The cells were culture for about 7 days, and the level of mature thymocytes, e.g., CD4^+/CD8^+ [DP], was assessed. In certain cultures, octyl-modified Shh was added to the culture; in other cultures, the anti-hedgehog 5E1 antibody was added.
We have previously shown that treatment of wild-type FTOC with between 0.3 and 1 μg/ml recombinant Shh arrested thymocyte development at the DN stage (Outram et al., Immunity 13: 187, 2000). This arrest was not due to nonspecific toxicity of the recombinant Shh, but was a genuine biological effect, as it could be neutralized by addition of anti-Hh mAb. […] Therefore, we decided to determine whether treatment of FTOC with lower concentrations of Shh could promote thymocyte development. We treated wild-type FTOC for 5 days with 0.0005 μg/ml Shh or 0.5 μg/ml Shh. In a typical experiment, treatment with 0.5 μg/ml Shh arrested thymocyte development at the DN stage, and <1% of thymocytes were DP compared with 7.6% in the control cultures, whereas treatment with 0.0005 μg/ml Shh promoted thymocyte development, and 15.2% of cells were DP (FIG. 12A). […] Treatment with 0.5 μg/ml inhibited both the production of DP cells and the overall cell recovery, and this inhibition was neutralized by addition of anti-Hh mAb, confirming that the arrest in thymocyte development was not the result of non-specific toxicity of the reagent (FIG. 12B). Thus, in wild-type FTOC, treatment with different concentrations of recombinant Shh can produce distinct outcomes at the transition from DN to DP cells; high-dose Shh treatment arrests thymocyte development, but treatment with a 1000-fold lower dose promotes the production of DP cells (FIG. 12, A-C).
(§1) Thymocyte suspensions were prepared by crushing thymi between two pieces of ground glass. Cells were stained using combinations of the following directly conjugated antibodies obtained from BD Pharmingen: anti-CD44FITC, anti-CD44Cychrome, anti-CD25 PE, anti-CD25 FITC, anti-CD4FITC, anti-CD8 Cychrome, anti-CD4PE, anti-CD4Cychrome, anti-CD8FITC, anti-CD45.1PE, anti-CD45.2FITC, anti-CD3PE and anti-TCR-βPE. Cell suspensions were stained with the antibodies for 30 minutes on ice in 50 μl of Dulbeccos modified medium (Life Technologies), supplemented with 5% FCS and 0.1% sodium azide. Cells were washed in this medium between incubations and prior to analysis on the FACScan (Becton Dickinson). Events were collected in list mode using CellQuest software and data analysed using CellQuest Pro software. Live cells were gated according to their FSC and SSC profiles. Data are representative of at least three experiments.
(§2) Fetal thymi were dissected from E14.5 Shh +/+, +/− and −/− mice and cultured on 8 μm pore size Millipore filters (Millipore) in AIM-V serum free medium (Life Technologies). Thymi were cultured at 37° C. and 5% CO2 for 3 or 6 days or cultured in the presence of 0.5 μg/ml or 0.0005 μg/ml modified human Shh (Curis) for 7 days.

[2] = system: thymocytes in Shh−/− FTOC; experiment: FTOC of E14.5 Shh−/− thymus explants treated with recombinant Shh; assay type: cell-based, mouse
Procedure: As thymocyte cellularity and differentiation were reduced in Shh−/− thymi, we examined if we could promote thymocyte development in Shh−/− thymus explants by treatment with recombinant Shh. We have previously shown that treatment of wildtype FTOC with between 0.3 to 1 μg/ml recombinant Shh arrested thymocyte development at the DN stage (Outram et al., 2000). […] We treated Shh−/− thymus explants for 7 days with 0.5 or 0.0005 μg/ml recombinant Shh. Treatment with 0.5 μg/ml Shh inhibited differentiation from DN to DP cells. In a typical experiment, 5.2% of thymocytes were DP in the treated cultures compared with 36.6% in control cultures (FIG. 12, D and E). Thus, Shh−/− thymocytes were able to respond to a Shh signal in the same way as wildtype thymocytes, despite the fact that they had not been exposed to Shh in vivo. Although this high dose of Shh arrested thymocyte differentiation, some activation of the Hh signalling pathway is clearly necessary for normal thymocyte differentiation. We therefore treated Shh−/− explants with a 1000-fold lower dose of recombinant Shh (0.0005 μg/ml). Treatment of Shh−/− thymus explants with low-dose Shh promoted differentiation to DP cell: After 7 days in culture Shh−/− thymus explants treated with 0.0005 μg/ml Shh contained more DP thymocytes than untreated Shh−/− thymus explants −41.6% DP thymocytes and 32.7% DN thymocytes in treated Shh−/− thymus explants, compared with 36.6% DP cells and 43.1% DN cells in untreated control Shh−/− thymus cultures (FIG. 9b).
We repeated these experiments by treating individual Shh−/− thymus lobes with recombinant Shh and comparing them to untreated cultures of the other lobe from the same embryo (summarized in FIG. 12F, cell production in each culture condition compared with that in the control lobe are shown on a log scale).
as §1, §2

[3] = system: thymocytes in wild-type FTOC; conditions: cited from earlier work

Substance: Shh: hydrophobically modified human Shh signalling protein, N-octyl-malemide coupled to amino-terminal cysteine of bacterially derived N-shh (Curis)
- percentage of cells with markers indicative of immature thymocytes ([1]; E14 thymus, about 7 days culture, high dose of Shh 0.5 μg/ml): increase
- Shh concentration at which Hedgehog functions as an immunosuppressant ([1]; FTOC, FIG. 12B): more than 0.1 μg/ml
- promotion of thymocyte development ([1]; wild-type FTOC, 0.00005 μg/ml): lost
- cells that were DP ([1]; wild-type FTOC, 5 days, 0.0005 μg/ml Shh, control cultures 7.6%): 15.2%
- thymocytes that were DP ([1]; wild-type FTOC, 5 days, 0.5 μg/ml Shh, control cultures 7.6%): < 1%
- DN thymocytes ([2]; Shh−/− explants, 7 days, 0.0005 μg/ml Shh, untreated 43.1%): 32.7%
- thymocytes that were DP ([2]; Shh−/− explants, 7 days, 0.5 μg/ml Shh, control cultures 36.6%): 5.2%
- production of DP cells ([2]; Shh−/− explants, low dose treatment (0.0005 μg/ml), overall): more than doubled
- cell number compared to control ([2]; Shh−/− explants, low-dose Shh (0.0005 μg/ml)): increased
- differentiation from DN to DP cells ([2]; Shh−/− thymus explants, 0.5 μg/ml Shh): inhibited
- overall cell production and differentiation to DP cell ([2]; individual Shh−/− thymus lobes, high dose Shh): inhibited
- thymocyte development at the DN3 stage, after TCRβ chain gene rearrangement ([3]; in vitro treatment of FTOC (Outram et al. 2000)): arrested
- thymocyte development at the DN stage ([3]; wild-type FTOC, between 0.3 and 1 μg/ml recombinant Shh (Outram et al. 2000)): arrested
